Results on four molecules are retold here after patent US20040091900A1, “Materials and methods for providing plants with increased resistance to environmental stress” (priority 2002, published 2004).

In one assay the test system is SspI. As to the kind of experiment: Compatible solute assay: protection of SspI activity during heat treatment. It counts as biochemical. Conditions: for protection of SspI activity / protection of SspI function: 50° C. for 15 min; for protection of SspI activity, time course: at least 25 min at 50° C., without sugars almost 90% activity lost; for protection of SspI function: 14 mM sugar (physiological concentration). As for the experimental part: SspI (New England Biolabs) is a bacterial restriction enzyme that cuts double stranded DNA. In this assay it cuts pGEX-4T-2 circular plasmid twice and generates 3.77 kb and 1.19 kb bands in the reaction buffer (50 mM NaCl, 100 mM Tris-HCL, […] MgCl2, 0.025% Triton X-100 pH 7.5 at 25° C.). Five units of SspI in reaction buffer in the absence of maltose were exposed to 50° C. for 15 min where 50% of the enzyme activity was lost and also exposed to heat temperature in the presence of 14, 100, 200 and 400 mM maltose. Then substrate, 0.5 μg of pGEX-4T-2 circular plasmid (Amersham Biosciences, Piscataway, N.J.), was added to the reaction mixture and incubated at 37 ° C. for 1 hr. […] To visualize the products, 1% agarose gel was run and 22 μl of total 50 μl reaction was loaded on to gel. The gel was run at 100 V for 30 min and stained with EtBr to visualize the product. The top band was quantified to assess the protection by maltose. Also, the same assay was done using sucrose, trehalose and glucose to compare the ability of maltose as a compatible solute. A time course experiment was conducted where SspI was treated in the absence and in the presence of 400 mM maltose, glucose, sucrose and trehalose at 50° C. for 0, 5, 10, 15, 20 and 25 min.
Compatible solutes can stabilize proteins and membranes and contribute to cell osmotic potential during stress. The compatible solute potential of maltose was tested for three different enzymes namely; SspI, Glucose-6-phosphate dehydrogenase (G6PDH) and alcohol dehydrogenase (ADH). The restriction enzyme, SspI (FIG. 4A), cuts the substrate plasmid (pGEX-4T-2; 4.97 kb) twice leading to 1 and 4 kb plasmid fragments, when the enzyme is fully functional. […] When the intensity of the 5 kb top band and the 4 kb band was equal, the enzyme was considered to have lost 50% activity. Sspl was exposed to 50° C. for 15 min (FIG. 4A) in the absence of maltose (0 mM as a control) and in the presence of (14, 100, 200, and 400 mM) maltose. The 5 kb top band, which represented the loss of activity, was quantified to determine relative protection. When the enzyme was fully active, the top band was not visible (FIG. 4A, lane C) and the intensity of the top band increased with increased loss of enzyme activity (lane 2; 0 mM sugars). […] This protection increased with the increasing maltose concentration (FIG. 4A). At 200 and 400 mM, the intensity of the top band was much less compared to 0 mM maltose.

For assay [1], the target named is T1, Glucose-6-phosphate dehydrogenase (G6PDH) (Leuconostoc mesenteroides, UniProt P11411).
T1 construct: purchased Worthington Biochemical Company
T1 sequence (P11411 whole entry): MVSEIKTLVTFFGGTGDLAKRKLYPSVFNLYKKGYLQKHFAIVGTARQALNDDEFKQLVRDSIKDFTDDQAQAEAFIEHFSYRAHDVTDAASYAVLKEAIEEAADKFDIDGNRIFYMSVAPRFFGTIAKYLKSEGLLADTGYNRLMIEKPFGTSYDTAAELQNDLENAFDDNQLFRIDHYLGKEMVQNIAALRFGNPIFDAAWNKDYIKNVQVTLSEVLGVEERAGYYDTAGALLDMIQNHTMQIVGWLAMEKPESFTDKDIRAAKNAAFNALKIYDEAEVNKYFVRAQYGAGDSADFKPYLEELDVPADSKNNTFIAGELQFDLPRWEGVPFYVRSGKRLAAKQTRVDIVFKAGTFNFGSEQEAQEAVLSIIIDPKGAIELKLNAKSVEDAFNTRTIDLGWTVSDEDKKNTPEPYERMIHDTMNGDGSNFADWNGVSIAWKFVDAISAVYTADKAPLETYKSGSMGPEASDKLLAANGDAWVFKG
The assay is described as follows: Compatible solute assay: protection of G6PDH activity during heat shock. It counts as biochemical. The conditions noted are these: 14, 100, 200, 400 mM sugar, 48° C. for 15 min. The procedure: Glucose-6-phosphate dehydrogenase (G6PDH): Lyophilized G6PDH from Leuconostoc mesenteroides was purchased from Worthington Biochemical Company. G6PDH in 50 mM Tris-HCl pH 7.8 was exposed to 48° C. for 15 min, which reduced activity by 50%. G6PDH in 50 mM Tris-HCl pH 7.8 was heat shocked in the absence and presence of 14, 100, 200, and 400 mM sugars: maltose, trehalose, glucose and sucrose. […] The reaction (1.5 ml) included 2.97 mM MgCl2, 50 mM Tris-HCl pH 7.8, 0.6 mM β-NADP^+ (freshly prepared), 10 mM Glucose-6-phosphate , and 595 ng heat shocked G6PDH. Production of NADPH was followed for 3 min at 340 nm using Lambda 3A UV/VIS spectrophotometer (PERKIN-ELMER). A time course experiment with two replications was conducted where G6PDH was treated in the absence and in the presence of 400 mM maltose, glucose, sucrose and trehalose at 48° C. for 0, 10, 15, 20 and 25 min.
To test whether this protection is general, compatible solute assays were performed using G6PDH, which uses D-glucose-6-phosphate and NAD(P)^+ as substrates to produce D-glucono-δ-lactone-P and NAD(P)H (FIG. 4B). […] The same performance was seen (FIG. 7B), when the time was extended to 25 min in the presence of 400 mM of the above sugars.

Assay [2] concerns photosynthetic electron transport chain of thylakoid membranes. The assay is described as follows: In vitro heat shock of thylakoids, whole electron transport chain assay with DCPIP. It counts as biochemical, Pea. Conditions: 40° C. for 4 min, 30% activity remained without sugars. The procedure: (§1) Pea chloroplast was isolated according to Cline (1993). Aerial portions of 50 g pea plant were chopped into small pieces into 200 ml of ice cold GR-buffer (50 mM HEPES/adjust pH 7.5 with KOH, 0.33 M sorbitol, 1 mM MgCl2, 1 mM MnCl2, 2 mM EDTA, 5 mM Na-ascorbate, 1%, BSA) and homogenized using a probe (named PTA 35/2 m). The homogenate was filtered through 1 layer of Mira cloth and centrifuged at 2000×g for 3 min in a swing-out rotor. Pellet was resuspended in GR buffer, overlayed on a Percoll gradient and centrifuged at 2000×g for 15 min in a swing out rotor. Intact plastids were collected, diluted three times with buffer (50 MM HEPES/KOH pH 8, 0.33 M sorbitol), and pelleted 1.500×g for 5 min. The pellet was resuspended in 25 ml of buffer (50 mM HEPES/KOH pH 8, 0.33 M sorbitol) and chlorophyll content was quantified.
(§2) Thylakoids were isolated according to Santarius (1996). The isolated chloroplast pellets were ruptured by resuspending at 1 mg/ml in 10 mM Hepes/KOH, pH 8, 5 mM MgCl2, and incubating 2 min on ice. Then, wash buffer 1:1 (70 mM KCl, 30 mM NaNO3, 20 mM K2SO4, 5 mM MgCl2, and 5 mM Hepes/KOH pH 7.5) was added and centrifuged 3300×g for 8 min to collect thylakoid membranes. The pellet was washed at 1 mg/ml in wash buffer and centrifuged at 3300×g for 8 min. Thylakoids were resuspended in wash buffer corresponding to 1 mg/ml chlorophyll.
Heat shock: Aliquots of 0.2 ml thylakoid in wash buffer (70 mM KCl, 30 mM NaNO3, 20 mM K2SO4, 5 mM MgCl2, and 5 mM Hepes/KOH pH 7.5) corresponding to 0.5 mg/ml chlorophyll were, exposed to heat shock at 40° C. for 4 min in the absence and presence of 2.5, 14, 28, 56, and 112 mM maltose, glucose and trehalose. Full activity of the whole electron transport chain was measured after isolation of thylakoid membranes. Five independent experiments with 3 replications each were done.
(§3) Whole electron transport chain assay, with DCPIP: This assay was done according to Hipkins and Baker (1986). Assay buffer included 0.1 M sorbitol, 50 mM Hepes-KOH pH 7.6, 5 mM NaCl, 5 mM MgCl2, 0.1 mM DCPIP. The reaction was mixed after addition of thylakoid corresponding to 25 μg/ml chlorophyll and illuminated for 10 sec at 200 μmol photons m^−2 sec^−1 light intensity. Activity of electron transport chain was determined using redox dye DCPIP reduction at 595 nm.
Maltose, trehalose and glucose were tested in vitro for compatible solute properties using thylakoid membranes for the functionality of electron transport chain against heat denaturation (FIG. 5) and freezing stress (FIG. 6). Pea thylakoids were exposed to 40° C. for 4 min (FIG. 5), where 30% of electron transport chain activity remained in the absence of compatible solute sugars. Electron transport chain activity was followed by reduction of a redox dye 2,6-dichlorophenolindophenol (DCPIP), which accepts electrons from QB of PSII and FeSA of PSI (Häder and Tevini, 1987). At physiological concentrations of 2.5 and 14 mM maltose, photosynthetic electron transport chain activity was protected 3 and 5%. respectively, during heat shock.

Assay [3] has the same test system. The assay is described as follows: In vitro freezing stress of thylakoids, whole electron transport chain assay with DCPIP. The conditions noted are these: −15° C. for 20 hr; for electron transport chain activity protection after freezing: 60% reduction without sugars. It counts as biochemical, Pea. The procedure:
as §1, §2
Freezing stress: Aliqutots of 0.2 ml thylakoid in wash buffer (70 mM KCl, 30 mM NaNO3, 20 mM K2SO4, 5 mM MgCl2, and 5 mM Hepes/KOH pH 7.5) corresponding to 0.5 mg/ml chlorophyll were exposed to freezing stress at −15° C. for 20 hrs in absence and presence of 2.5, 14, 28, 56, and 112 mM maltose, glucose and trehalose. Full activity of the whole electron transport chain was measured after isolation of thylakoid membranes. Four independent experiments with three (3) replications each were done.
as §3
Pea thylakoids were frozen (FIG. 6) at −15° C. for 20 hr, which caused a 60% reduction of electron transport chain activity. […] This protection increased gradually to 93% with the increasing concentration of maltose and was very similar to that of trehalose. Glucose at 112 mM gave 47% protection, which was much less than that of maltose or trehalose.

Consider `OC[C@H]1O[C@@](CO)(O[C@H]2O[C@H](CO)[C@@H](O)[C@H](O)[C@H]2O)[C@@H](O)[C@@H]1O` [sucrose], for which, in the assay with SspI (400 mM sugar), the “protection of SspI activity” value was determined as 100% and the “protection of SspI activity, time course” value came out at 100%.
For `OC[C@H]1O[C@H](O[C@H]2[C@H](O)[C@@H](O)[C@H](O)O[C@@H]2CO)[C@H](O)[C@@H](O)[C@@H]1O` [maltose, 4-O-α-D-Glucopyranosyl-β-D-glucose], the “protection of G6PDH activity” value in assay [1] was “performed as well as the other compatible solute sugars”. Also, the “electron transport chain activity protected during heat shock” value amounted to 3% in assay [2] (2.5 mM sugar), 5% in assay [2] (14 mM sugar) and 45% in assay [2] (112 mM sugar). Also, the “electron transport chain activity protection after freezing” value in assay [3] (2.5 mM sugar) stood at 2%; in assay [3] (14 mM sugar), 24%. The “electron transport chain activity protection after freezing, reached with increasing concentration” value in assay [3] (increasing concentration (concentration not given; up to 112 mM tested)) was 93%. The “protection of SspI function” value in the assay with SspI is given as “able to partially protect SspI function”; with SspI (listed as Maltose) it was “performed as well as trehalose”. For the same molecule, the “protection of SspI activity” value is on record as 80-90% with SspI (200 mM sugar) and 85-90% with SspI (400 mM sugar). For the same molecule, the “protection of SspI activity, time course” value in the assay with SspI (400 mM sugar) is “about 90%”.
Regarding `OC[C@H]1O[C@H](O[C@H]2O[C@H](CO)[C@@H](O)[C@H](O)[C@H]2O)[C@H](O)[C@@H](O)[C@@H]1O` [trehalose], the “electron transport chain activity protected during heat shock” value in assay [2] (112 mM sugar) worked out at 54%. The “protection of SspI activity” value in the assay on SspI (200 mM sugar) worked out at 100%. Besides, in the assay on SspI (400 mM sugar), the “protection of SspI activity” value was found to be 100% and the “protection of SspI activity, time course” value is reported as 100%.
Regarding `O=C[C@H](O)[C@@H](O)[C@H](O)[C@H](O)CO` [glucose, reference compound], in assay [2] (112 mM sugar), the “electron transport chain activity protected during heat shock” value came to 30%. Also, in assay [3] (112 mM sugar), the “electron transport chain activity protection after freezing” value stood at 47%. Moreover, in the assay on SspI (400 mM sugar), the “protection of SspI activity” value is 100% and the “protection of SspI activity, time course” value was determined as 100%.
